Experiments:
[1] = test system: fundic pouch dog; test: Suppressing action on gastric acid secretion (histamine stimulation) in fundic pouch dog; assay type: in vivo; conditions: for Amount of gastric juice secretion: histamine stimulation 0.2 mg/kg/hr, control 116.1 ± 12.3, mean ± standard error for 6 samples
Protocol: (§1) An effect on gastric acid secretion by stimulation under awakening was studied by using (fundic pouch dog). For preparation of the fundic pouch dog, a mongrel dog after starvation overnight was subjected to sterile ventrotomy under anesthesia using sodium pentobarbital (30 mg/kg, i.v.), and a fistula was attached to a part of the corpus ventriculi. After recovery period for two weeks, the dog was fixed to the Pavlov's stand, and gastric juice was collected every 15 minutes for 4 hours under histamine stimulation (0.2 mg/kg/hr). A volume of each collected gastric juice was recorded, and the juice was titrated with 0.01N NaOH using pH automatic measuring apparatus (Radiometer Copenhagen). The test compound, encapsulated in a gelatin capsule, was orally administered one hour before histamine administration.

[2] = test system: fundic pouch dog; test: Suppressing action on gastric acid secretion (tetragastrin stimulation) in fundic pouch dog; assay type: in vivo; conditions: for Amount of gastric juice secretion: tetragastrin stimulation 2 μg/kg/hr, control 40.1 ± 3.9, mean ± standard error for 6 samples
Protocol: as §1
Experiment was conducted in a similar manner as Example 1 except that the stimulating agent was replaced with tetragastrin(2 μg/kg/hr).

O=C(N[C@H]1CN2CCC1CC2)c1cnc2ccsc2c1O [Test compound, R-(−)-N-(1-azabicyclo[2.2.2]oct-3-yl)-7-hydroxythieno[3,2-b]-pyridine-6-carboxamide]
Amount of gastric juice secretion ([1]; 3 μg/kg oral (gelatin capsule) one hour before histamine): 76.8 ± 7.4 mEq/4 hr
Amount of gastric juice secretion ([1]; 10 μg/kg oral (gelatin capsule) one hour before histamine): 61.9 ± 5.5 mEq/4 hr
secretion of gastric juice by histamine stimulation (result in words) ([1]; histamine stimulation, fundic pouch dog): suppressed
Amount of gastric juice secretion ([2]; 10 μg/kg oral): 26.7 ± 7.8 mEq/4 hr
Amount of gastric juice secretion ([2]; 30 μg/kg oral): 12.9 ± 5.3 mEq/4 hr
secretion of gastric juice by tetragastrin stimulation (result in words) ([2]; tetragastrin stimulation, fundic pouch dog): suppressed

— US6967207B2, “Preventive or therapeutic agents for gastric or esophageal regurgitation” (Mitsubishi Pharma Corporation, priority 2000, dated 2005)
